According to US4132846A:
Converted amounts (≈) assume the structure as drawn. Read-outs that look alike come from different tables or passages of the source.

What was measured:
[1] = system: Bacillus subtilis No. 10707; assay: MIC, agar dilution method at pH 8.0; assay type: cell-based
[2] = system: Escherichia coli KY 8348; assay: MIC, agar dilution method at pH 8.0; assay type: cell-based; settings: KY8348, Escherichia coli KY 8348 (produces gentamicin acetyltransferase Type I), read-out: minimum Inhibitory Concentration
Excerpt: (§1) The former bacterium inactivates kanamycins and gentamicins by adenylation, and the latter inactivates gentamicins by acetylation.

[3] = system: Escherichia coli KY 8327; assay: MIC, agar dilution method at pH 8.0; assay type: cell-based; settings: KY8327, Escherichia coli KY 8327 (produces gentamicin adenyltransferase), read-out: minimum Inhibitory Concentration
Excerpt: as §1

[4] = system: Pseudomonas aeruginosa KY 8511; assay: MIC, agar dilution method at pH 7.2; assay type: cell-based; settings: KY8511, Pseudomonas aeruginosa KY 8511 (gentamicin acetyltransferase Type I and neomycin-kanamycin phosphotransferase Type I), read-out: Minimum Inhibitory Concentration
Excerpt: ^6 produces gentamicin acetyltransferase Type I and neomycin-kanamyci

[5] = system: Escherichia coli ATC 26; assay: MIC, agar dilution method at pH 8.0; assay type: cell-based; settings: ATC26, read-out: minimum Inhibitory Concentration
[6] = system: Staphylococcus aureus ATC 6538P; assay: MIC, agar dilution method at pH 8.0; assay type: cell-based; settings: ATC6538P
[7] = system: Proteus vulgaris ATCC 6897; assay: microbe, parasite or virus in culture; assay type: cell-based; settings: ATCC6897, pH 8, read-out: minimum Inhibitory Concentration
[8] = system: Shigella sonnei ATCC 9290; assay: microbe, parasite or virus in culture; assay type: cell-based; settings: ATCC9290, agar dilution, pH 8.0, read-out: minimum Inhibitory Concentration
[9] = system: Escherichia coli KY 8321; assay: MIC, agar dilution method at pH 7.2; assay type: cell-based; settings: KY8321, Escherichia coli KY 8321 (gentamicin adenyltransferase and neomycin-kanamycin phosphotransferase Type II), read-out: Minimum Inhibitory Concentration
Excerpt: ^2 produces gentamicin adenyltransferase and neomycin-kanamycin
phosphotransferase Type II

[10] = system: Providencia sp. 164; assay: MIC, agar dilution method at pH 7.2; assay type: cell-based; settings: Providencia sp. 164 (gentamicin acetyltransferase Type II), read-out: Minimum Inhibitory Concentration
[11] = system: Pseudomonas aeruginosa KY 8512; assay: MIC, agar dilution method at pH 7.2; assay type: cell-based; settings: KY8512, Pseudomonas aeruginosa KY 8512 (neomycin-kanamycin phosphotransferase Type I and II, streptomycin phosphotransferase), read-out: Minimum Inhibitory Concentration
Excerpt: (§2) Anti-bacterial Spectrum (Minimum Inhibitory Concentration, mcg/ml)
^7 produces neomycin-kanamycin phosphotransferase Type I and Type II
and streptomycin phosphotransferase

[12] = system: Escherichia coli KY 8348; assay: MIC, agar dilution method at pH 7.2; assay type: cell-based; settings: KY8348, Escherichia coli KY 8348 (gentamicin acetyltransferase Type I), read-out: Minimum Inhibitory Concentration
[13] = system: Klebsiella pneumoniae ATCC 10031; assay: MIC, agar dilution method at pH 8.0; assay type: cell-based; settings: ATCC10031, pH 8, read-out: minimum Inhibitory Concentration
[14] = system: Escherichia coli KY 8327; assay: MIC, agar dilution method at pH 7.2; assay type: cell-based; settings: KY8327, Escherichia coli KY 8327 (produces gentamicin adenyltransferase), read-out: Minimum Inhibitory Concentration
Excerpt: as §2
^1 produces gentamicin adenyltransferase

[15] = system: Pseudomonas aeruginosa BMH 1; assay: MIC, agar dilution method at pH 7.2; assay type: cell-based; settings: BMH1, read-out: Minimum Inhibitory Concentration
Excerpt: as §2

[16] = system: Klebsiella pneumoniae No. 8045; assay: MIC, agar dilution method at pH 7.2; assay type: cell-based; settings: read-out: Minimum Inhibitory Concentration
Excerpt: as §2

[17] = system: Escherichia coli T-2; assay: MIC, agar dilution method at pH 7.2; assay type: cell-based; settings: T2, read-out: Minimum Inhibitory Concentration
Excerpt: as §2

[18] = system: Proteus mirabilis 1287; assay: MIC, agar dilution method at pH 7.2; assay type: cell-based; settings: read-out: Minimum Inhibitory Concentration
Excerpt: as §2

[19] = system: Proteus vulgaris 6897; assay: MIC, agar dilution method at pH 7.2; assay type: cell-based
Excerpt: as §2

[20] = system: Staphylococcus aureus 209 P; assay: MIC, agar dilution method at pH 7.2; assay type: cell-based; settings: read-out: Minimum Inhibitory Concentration
Excerpt: as §2

[21] = system: Bacillus subtilis ATCC 6633; assay: MIC, agar dilution method at pH 7.2; assay type: cell-based; settings: ATCC6633, read-out: Minimum Inhibitory Concentration
Excerpt: as §2

[22] = system: Salmonella typhosa ATCC 9992; assay: MIC, agar dilution method at pH 8.0; assay type: cell-based; settings: Salmonella enterica, pH 8, read-out: minimum Inhibitory Concentration
[23] = system: Pseudomonas aeruginosa BMH 1; assay: MIC, agar dilution method at pH 8.0; assay type: cell-based; settings: BMH1, read-out: minimum Inhibitory Concentration
[24] = system: Pseudomonas aeruginosa KY 8510; assay: MIC, agar dilution method at pH 7.2; assay type: cell-based; settings: KY8510, Pseudomonas aeruginosa KY 8510 (kanamycin acetyltransferase), read-out: Minimum Inhibitory Concentration
[25] = system: Escherichia coli KY 8349; assay: MIC, agar dilution method at pH 7.2; assay type: cell-based; settings: KY8349, Escherichia coli KY 8349 (neomycin-kanamycin phosphototransferase Type I), read-out: Minimum Inhibitory Concentration
Excerpt: ^4 produces neomycin-kanamycin phosphototransferase Type I

[26] = in water and methanol; cited from earlier work
[27] = system: Staphylococus aureus Smith; assay: MIC, agar dilution method at pH 7.2; assay type: cell-based
Excerpt: as §2

[28] = system: Pseudomonas aeruginosa KY 8516; assay: MIC, agar dilution method at pH 7.2; assay type: cell-based; settings: KY8516, Pseudomonas aeruginosa KY 8516 (probably kanamycin acetyltransferase), read-out: Minimum Inhibitory Concentration
[29] = system: Proteus rettgeri KY 4288; assay: MIC, agar dilution method at pH 7.2; assay type: cell-based; settings: Providencia rettgeri, KY4288, pH 7.2, read-out: Minimum Inhibitory Concentration
[30] = system: Escherichia coli T-5; assay: MIC, agar dilution method at pH 7.2; assay type: cell-based; settings: T5, read-out: Minimum Inhibitory Concentration
Excerpt: as §2

[31] = system: Sarcina lutea ATCC 9341; assay: MIC, agar dilution method at pH 7.2; assay type: cell-based; settings: Micrococcus luteus, ATCC9341, read-out: Minimum Inhibitory Concentration
Excerpt: as §2

[32] = system: Proteus morganii KY 4298; assay: MIC, agar dilution method at pH 7.2; assay type: cell-based; settings: Morganella morganii, KY4298, pH 7.2, read-out: Minimum Inhibitory Concentration
Excerpt: as §2

[33] = Bacillus subtilis, NO.10707, pH 8, read-out: minimum Inhibitory Concentration
[34] = Staphylococcus aureus, pH 8, read-out: minimum Inhibitory Concentration
[35] = Proteus vulgaris 6897, agar dilution, pH 7.2, read-out: Minimum Inhibitory Concentration
[36] = Bacillus subtilis No. 10707, agar dilution, pH 8.0, read-out: minimum Inhibitory Concentration
[37] = Staphylococcus aureus ATC 6538P, agar dilution, pH 8.0, read-out: minimum Inhibitory Concentration
[38] = Staphylococus aureus Smith, agar dilution, pH 7.2, read-out: Minimum Inhibitory Concentration

Structure (SMILES)	MIC [2]	MIC [3]	MIC [4]	MIC [5]	MIC [7]	MIC [8]	MIC [9]	MIC [10]	MIC [11]	MIC [12]	MIC [13]	MIC [14]	MIC [15]	MIC [16]	MIC [18]	MIC [20]	MIC [21]	MIC [22]	MIC [23]	MIC [24]	other results
CNCC1CCC(N)C(OC2C(N)CC(NC(=O)[C@H](O)CN)C(OC3OCC(C)(O)C(NC)C3O)C2O)O1 (stereo partly drawn) [D-form]	0.004 µg/mL (≈ 0.00726 µM)	0.004 µg/mL (≈ 0.00726 µM)	3.12 µg/mL (≈ 5.67 µM)	0.004 µg/mL (≈ 0.00726 µM)	0.033 µg/mL (≈ 0.0599 µM)	0.008 µg/mL (≈ 0.0145 µM)	0.2 µg/mL (≈ 0.363 µM)	6.25 µg/mL (≈ 11.4 µM)	1.56 µg/mL (≈ 2.83 µM)	0.2 µg/mL (≈ 0.363 µM)	0.004 µg/mL (≈ 0.00726 µM)	0.2 µg/mL (≈ 0.363 µM)	1.56 µg/mL (≈ 2.83 µM)	0.2 µg/mL (≈ 0.363 µM)	3.12 µg/mL (≈ 5.67 µM)	0.05 µg/mL (≈ 0.0908 µM)	0.05 µg/mL (≈ 0.0908 µM)	0.004 µg/mL (≈ 0.00726 µM)	2.08 µg/mL (≈ 3.78 µM)	3.12 µg/mL (≈ 5.67 µM)	MIC [1, 33]: 0.004 µg/mL (≈ 0.00726 µM); MIC [6, 34]: 0.004 µg/mL (≈ 0.00726 µM); MIC [17]: 0.2 µg/mL (≈ 0.363 µM); MIC [19, 35]: 0.78 µg/mL (≈ 1.42 µM); MIC [25]: 0.2 µg/mL (≈ 0.363 µM)
CNC[C@@H]1CC[C@@H](N)[C@@H](O[C@H]2[C@H](O)[C@@H](O[C@H]3OC[C@](C)(O)[C@H](NC)[C@H]3O)[C@H](N)C[C@@H]2N)O1 [XK-62-2, reference compound]	–	–	–	–	–	–	–	–	–	–	–	–	–	–	–	–	–	–	–	–	MIC [1, 36]: 0.004 µg/mL (≈ 0.00863 µM); solubility [26]: freely soluble; MIC [6, 37]: 0.008 µg/mL (≈ 0.0173 µM); MIC [27, 38]: < 0.05 µg/mL
CNCC1CCC(N)C(OC2C(N)CC(NC(=O)C(O)CN)C(OC3OCC(C)(O)C(NC)C3O)C2O)O1 (racemic) [DL-form]	0.004 µg/mL (≈ 0.00726 µM)	0.004 µg/mL (≈ 0.00726 µM)	3.12 µg/mL (≈ 5.67 µM)	0.008 µg/mL (≈ 0.0145 µM)	0.033 µg/mL (≈ 0.0599 µM)	0.016 µg/mL (≈ 0.0291 µM)	0.2 µg/mL (≈ 0.363 µM)	12.5 µg/mL (≈ 22.7 µM)	0.78 µg/mL (≈ 1.42 µM)	0.2 µg/mL (≈ 0.363 µM)	0.033 µg/mL (≈ 0.0599 µM)	0.4 µg/mL (≈ 0.726 µM)	1.56 µg/mL (≈ 2.83 µM)	0.2 µg/mL (≈ 0.363 µM)	3.12 µg/mL (≈ 5.67 µM)	0.1 µg/mL (≈ 0.182 µM)	0.1 µg/mL (≈ 0.182 µM)	0.004 µg/mL (≈ 0.00726 µM)	1.04 µg/mL (≈ 1.89 µM)	3.12 µg/mL (≈ 5.67 µM)	MIC [1, 36]: 0.008 µg/mL (≈ 0.0145 µM); MIC [28]: 3.12 µg/mL (≈ 5.67 µM); MIC [6, 37]: 0.065 µg/mL (≈ 0.118 µM); MIC [29]: 0.78 µg/mL (≈ 1.42 µM); MIC [30]: 0.4 µg/mL (≈ 0.726 µM); MIC [17]: 0.4 µg/mL (≈ 0.726 µM); MIC [31]: 0.4 µg/mL (≈ 0.726 µM); MIC ([19]; Proteus vulgaris, 6897, pH 7.2, read-out: Minimum Inhibitory Concentration): 3.12 µg/mL (≈ 5.67 µM); MIC [32]: 0.78 µg/mL (≈ 1.42 µM); MIC [27, 38]: 0.05 µg/mL (≈ 0.0908 µM); MIC [25]: 0.2 µg/mL (≈ 0.363 µM)
CNCC1CCC(N)C(OC2C(N)CC(NC(=O)[C@@H](O)CN)C(OC3OCC(C)(O)C(NC)C3O)C2O)O1 (stereo partly drawn) [L-form]	0.004 µg/mL (≈ 0.00726 µM)	0.004 µg/mL (≈ 0.00726 µM)	3.12 µg/mL (≈ 5.67 µM)	0.004 µg/mL (≈ 0.00726 µM)	0.033 µg/mL (≈ 0.0599 µM)	0.008 µg/mL (≈ 0.0145 µM)	0.4 µg/mL (≈ 0.726 µM)	6.25 µg/mL (≈ 11.4 µM)	0.78 µg/mL (≈ 1.42 µM)	0.2 µg/mL (≈ 0.363 µM)	0.004 µg/mL (≈ 0.00726 µM)	0.2 µg/mL (≈ 0.363 µM)	1.56 µg/mL (≈ 2.83 µM)	0.2 µg/mL (≈ 0.363 µM)	3.12 µg/mL (≈ 5.67 µM)	0.05 µg/mL (≈ 0.0908 µM)	0.05 µg/mL (≈ 0.0908 µM)	0.004 µg/mL (≈ 0.00726 µM)	1.04 µg/mL (≈ 1.89 µM)	3.12 µg/mL (≈ 5.67 µM)	MIC [1, 33]: 0.004 µg/mL (≈ 0.00726 µM); MIC [6, 34]: 0.004 µg/mL (≈ 0.00726 µM); MIC [19, 35]: 1.56 µg/mL (≈ 2.83 µM); MIC [25]: 0.2 µg/mL (≈ 0.363 µM)
NC[C@H]1O[C@H](O[C@H]2[C@H](O)[C@@H](O[C@H]3O[C@H](CO)[C@@H](O)[C@H](N)[C@H]3O)[C@H](N)C[C@@H]2N)[C@H](O)[C@@H](O)[C@@H]1O [Kanamycin A, kanamycin A, reference compound]	–	–	–	–	–	–	–	–	–	–	–	–	–	–	–	–	–	0.08 µg/mL (≈ 0.165 µM)	–	–	MIC ([27]; pH 7.2, read-out: Minimum Inhibitory Concentration): 0.2 µg/mL (≈ 0.413 µM)
